In publication PMC10519361, “Shigella flexneri utilizes intestinal signals to control its virulence” (Gut Microbes, 2023):

Target: T1, VirF (Shigella flexneri, UniProt P0A2T1)
T1 construct: full ORF in pET15b, His-tagged (tag apparently kept)
Assay: ELISA, fatty acid coated on plate, His-VirF detected by anti-His antibody
Format: binding
Conditions: read-out: apparent Kd

T1 sequence (P0A2T1 whole entry): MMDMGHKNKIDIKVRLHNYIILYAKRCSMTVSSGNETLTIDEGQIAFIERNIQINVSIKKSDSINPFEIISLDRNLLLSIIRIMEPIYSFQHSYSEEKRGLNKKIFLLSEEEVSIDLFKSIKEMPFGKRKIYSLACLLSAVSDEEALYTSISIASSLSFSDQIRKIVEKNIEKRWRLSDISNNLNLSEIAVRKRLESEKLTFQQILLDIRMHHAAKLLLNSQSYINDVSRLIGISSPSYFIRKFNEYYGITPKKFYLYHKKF

Row | Structure (SMILES) | Kd
1 | CCCCCC/C=C\CCCCCCCC(=O)O [palmitoleic acid] | 12.9 µM
2 | CCCCCCCCCCCCC/C=C\C(=O)O [c2-HDA] | 8.2 µM
3 | CCCCCCCCCCCCC/C=C/C(=O)O [t2-HDA] | 9.5 µM
4 | CCCCCCCC/C=C\CCCCCCCC(=O)O [oleic acid] | 14.3 µM
5 | CCCCCCCCCCCCCCCCC/C=C\C(=O)O [c2-EA] | 11.2 µM
